Source: article PMC11247486, “Improving the In Vivo Stability of [^52Mn]Mn(II) Complexes with 18-Membered Macrocyclic Chelators for PET Imaging” (Journal of Medicinal Chemistry, 2024)

Legend:
[1] = Serum stability of the 52Mn radiocomplexes, human serum; assay type: in vitro ADME; conditions: for intact complex / % activity of pellet / % activity of supernatant: 37 °C; for intact complex: 5 days
Protocol: (§1) The ^52Mn radiocomplexes were incubated with human or mouse serum at 37 °C. 50 μL of the radiocomplexes in PBS was combined with 500 μL of serum in triplicate and incubated at 37 °C for over 5 days. At indicated time points, 50 μL of the reaction mixture was removed and proteins were precipitated by addition of 50 μL of methanol. The precipitated proteins were centrifuged before iTLC measurements were performed over a period of 5 days on the supernatant. All the radio-TLC chromatograms for evaluation of stabilities are available in the Supporting Information section as Figures S9–S12.

[2] = Serum stability of the 52Mn radiocomplexes, mouse serum; assay type: in vitro ADME; conditions: for intact complex / % activity of pellet / % activity of supernatant: 37 °C; for intact complex: 5 days
Protocol: as §1

[3] = DTPA challenge of the radiocomplexes; assay type: physicochemical; conditions: DTPA (5 equiv), 37 °C
Protocol: (§2) Assessment of the stability and kinetic inertness of the radiocomplexes before in vivo evaluation was conducted to assess the possibilities of transchelation. In vitro stability assays including incubating the radiocomplexes with an excess (100 μM) of biologically relevant metal ions (Mg^2+, Zn^2+, Fe^2+, and Cu^2+), DTPA, and mouse and human serum were conducted.
(§3) For metal challenge studies, a 10 molar excess of 100 μM of metal ions in chloride solutions including CuCl2, ZnCl2, FeCl2, and MgCl2 relative to ligand concentration was incubated with the radiocomplexes at 37 °C. A 5 molar excess of DTPA was also added to compete with ^52Mn in the radiocomplexes. Decomplexation was monitored by radio-iTLC over a period of 5 days.

[4] = Metal challenge of the radiocomplexes; assay type: physicochemical
Protocol: as §2, §3

[5] = Dynamic PET/CT imaging, SUVmean analysis; assay type: in vivo; conditions: healthy mice, 1.5 h postinjection
Protocol: (§4) [^52Mn]Mn-CHXPYAN and [^52Mn]Mn-PYAN radiocomplexes were evaluated in vivo through 90 min dynamic PET/CT imaging of heathy mice followed by an ex vivo biodistribution analysis. Similarly, [^52Mn]MnCl2 was also studied as a control.
Regions of interest (ROIs) were manually drawn using CT images to determine the standard uptake value (SUVmean) using VivoQuant imaging software.
(§5) [^52Mn]Mn-CHXPYAN and [^52Mn]Mn-PYAN were synthesized with molar specific activities of 80 and 60 MBq/μmol, respectively. 1.04 ± 0.07 MBq (28 ± 2 μCi) of the radiocomplexes in 100 μL injection doses was prepared. The mice (n = 4 per group) were anesthetized with 2.5% isoflurane in oxygen and were injected via the retroorbital sinus. For comparison purposes, 1.04 ± 0.07 MBq (28 ± 2 μCi) of [^52Mn]MnCl2, pH 7 was also injected. After injection, mice were imaged on a Sofie GNEXT PET/CT scanner for a 90 min dynamic scan (9 frames of 10 min each) followed by a 3 min CT at 80 kVp for anatomical reference. PET images were reconstructed via 3D-OSEM (Ordered Subset Expectation Maximization) algorithm (24 subsets and 3 iterations), with random, attenuation, and decay correction, and CT was reconstructed with the modified Feldkamp algorithm and analyzed using VivoQuant 4.0 (Invicro Imaging Service and Software, Boston MA) software. After imaging, mice were euthanized, and organs were collected, weighed, and counted for associated radioactivity on an automated gamma counter. Radioactivity uptake was calculated as the percent injected dose per gram of tissue (% ID/g). Following the reconstruction of the images, ROIs (heart, liver, kidneys, muscle, and bone) were hand-drawn to determine the SUVs using the VivoQuant imaging software.

[6] = Ex vivo biodistribution after PET/CT; assay type: in vivo, mice
Protocol: as §4, §5

[7] = healthy mice, 1.5 h postinjection, mean ± SD, n = 4

[52Mn+2].c1cc2nc(c1)CN[C@@H]1CCCC[C@H]1NCc1cccc(n1)CN[C@@H]1CCCC[C@H]1NC2 [[^52Mn]Mn-CHXPYAN]
intact complex [1]: 98.04 ± 0.18% | % activity of pellet ([1]; day 1, average): 13.09% | % activity of supernatant ([1]; day 1, average): 86.91% | % activity of pellet ([1]; day 2, average): 12.54% | % activity of supernatant ([1]; day 2, average): 87.45% | % activity of pellet ([1]; day 3, average): 14.46% | % activity of supernatant ([1]; day 3, average): 85.54% | % activity of pellet ([1]; day 4, average): 10.33% | % activity of supernatant ([1]; day 4, average): 89.66% | % activity of pellet ([1]; day 5, average): 9.31% | % activity of supernatant ([1]; day 5, average): 90.7% | radioactivity associated with the protein pellet ([1]; all time points): < 15% | intact complex [2]: 96.31 ± 1.34% | % activity of pellet ([2]; day 1, average): 10.33% | % activity of supernatant ([2]; day 1, average): 89.66% | % activity of pellet ([2]; day 2, average): 10.82% | % activity of supernatant ([2]; day 2, average): 89.18% | % activity of pellet ([2]; day 3, average): 12.07% | % activity of supernatant ([2]; day 3, average): 87.93% | % activity of pellet ([2]; day 4, average): 14.33% | % activity of supernatant ([2]; day 4, average): 85.66% | % activity of pellet ([2]; day 5, average): 12.14% | % activity of supernatant ([2]; day 5, average): 87.67% | radioactivity associated with the protein pellet ([2]; all time points): < 15% | intact complex ([3]; day 5): 5.73 ± 0.25% | intact complex ([4]; 10 molar excess of Cu^2+, day 5): 14.56 ± 1.09% | intact complex ([4]; 10 molar excess of Zn^2+, day 5): 8.14 ± 1.76% | SUVmean, kidneys [5]: 0.20 ± 0.03 | SUVmean, liver [5]: 0.10 ± 0.02 | Biodistribution, Blood [6, 7]: 0.14 ± 0.01 % ID/g | Biodistribution, Brain [6, 7]: 0.03 ± 0.01 % ID/g | Biodistribution, Fat [6, 7]: 0.11 ± 0.13 % ID/g | Biodistribution, Femur [6, 7]: 0.09 ± 0.04 % ID/g | Biodistribution, Heart [6, 7]: 0.21 ± 0.01 % ID/g | Biodistribution, Kidney [6, 7]: 11.27 ± 1.11 % ID/g | Biodistribution, L. Intestine [6, 7]: 3.45 ± 1.44 % ID/g | Biodistribution, Liver [6, 7]: 1.72 ± 0.93 % ID/g | Biodistribution, Lungs [6, 7]: 0.26 ± 0.12 % ID/g | Biodistribution, Muscle [6, 7]: 0.02 ± 0.01 % ID/g | Biodistribution, Pancreas [6, 7]: 0.20 ± 0.09 % ID/g | Biodistribution, S. Intestine [6, 7]: 2.32 ± 0.83 % ID/g | Biodistribution, Skin [6, 7]: 0.08 ± 0.04 % ID/g | Biodistribution, Spleen [6, 7]: 0.22 ± 0.18 % ID/g | Biodistribution, Stomach [6, 7]: 0.08 ± 0.04 % ID/g

[52Mn+2].c1cc2nc(c1)CNCCNCc1cccc(n1)CNCCNC2 [[^52Mn]Mn-PYAN]
intact complex [1]: 92.78 ± 1.22% | intact complex [2]: 90.67 ± 1.12% | intact complex ([3]; day 1): 2.32 ± 0.66% | intact complex ([4]; 10 molar excess of Cu^2+, day 1): < 4% | intact complex ([4]; 10 molar excess of Zn^2+, day 1): < 4% | SUVmean, kidneys [5]: 1.70 ± 0.26 | SUVmean, liver [5]: 0.77 ± 0.14 | Biodistribution, Blood [6, 7]: 0.70 ± 0.20 % ID/g | Biodistribution, Brain [6, 7]: 0.45 ± 0.09 % ID/g | Biodistribution, Fat [6, 7]: 1.03 ± 0.50 % ID/g | Biodistribution, Femur [6, 7]: 0.80 ± 0.30 % ID/g | Biodistribution, Heart [6, 7]: 1.85 ± 0.71 % ID/g | Biodistribution, Kidney [6, 7]: 63.34 % ID/g | Biodistribution, Liver [6, 7]: 30.39 ± 11.46 % ID/g | Biodistribution, Lungs [6, 7]: 1.28 ± 0.51 % ID/g | Biodistribution, Muscle [6, 7]: 0.18 ± 0.05 % ID/g | Biodistribution, Pancreas [6, 7]: 2.41 ± 1.60 % ID/g | Biodistribution, Skin [6, 7]: 0.32 ± 0.18 % ID/g | Biodistribution, Spleen [6, 7]: 1.33 ± 0.93 % ID/g | Biodistribution, Stomach [6, 7]: 1.29 ± 0.53 % ID/g | Biodistribution, L. Intestine ([6]; mouse, in vivo, 1.5 h): 2.69 ± 0.82 % ID/g | Biodistribution, S. Intestine ([6]; mouse, in vivo, 1.5 h): 13.00 ± 2.35 % ID/g
